{
  "source": "patent US10391166B2",
  "about": "“Short oligonucleotides as vaccine adjuvants and therapeutic agents” (priority 2013, dated 2019)",
  "key": {"M. tuberculosis [1]": {"tested_on": "M. tuberculosis", "parameters": "species or system C57Bl/6 mice", "conditions": "mouse, in vivo"}, "[2]": {"experiment": "14-day oral toxicity study in rats with two-week recovery", "assay_type": "in vivo, Sprague-Dawley rats", "quoted_text": "(§1) Necropsies were performed on Day 15 for rats in the main study group and on Day 28 for rats in the recovery group."}, "[3]": {"tested_on": "C57Bl/6 mouse bone marrow derived macrophages", "assay_type": "cell-based"}, "[4]": {"tested_on": "peripheral blood mononuclear cells (PBMCs)", "experiment": "Multiplex assay for 28 cytokines in PBMCs", "assay_type": "cell-based, human", "conditions": "up to 50 μM"}, "[5]": {"conditions": "liver microsomes", "quoted_text": "SB 44 (10 μM) was incubated with a mix containing S9 fraction (pooled from human) (1 mg/ml), NADPH (1.3 mM) UDPGA (5 mM), Alamethicin (10 μg/ml) in 1 ml of 1×PBS buffer. […] The metabolite samples were evaluated by HPLC and LC/MS analysis."}, "IL-1β": {"tested_on": "IL-1β", "experiment": "Mature IL-1β ELISA in mouse bone marrow derived primary macrophages", "assay_type": "cell-based", "conditions": "alone or with MDP or BCG, caspase blockade with ZVAD-fmk", "method": "C57Bl/6 mouse bone marrow derived primary macrophages were treated with SB 1A or SB 1B alone, MDP alone or in combination as indicated for 4 hrs. BCG was used for infection for 4 hrs and supernatants collected 18 hr later titrated for mature IL1β using ELISA. Macrophages were first treated with ZVAD-fmk (2 hrs) for caspase blockade followed by activation with SB 1A and SB 1B (4 hrs) and BCG infection (4 hrs). Cytokine was measured 18 hrs later."}, "[6]": {"experiment": "Dose range-finding oral study in cynomolgus monkeys", "assay_type": "in vivo", "conditions": "500 mg/kg/day oral for 4 days", "method": "The objective of this study was to determine a maximum tolerated dose (MTD) and a no observable adverse effect level (NOAEL) for the endpoints examined following daily oral gavage of SB 44 for 4 consecutive days to cynomolgus monkeys. Information from this study was used to design subsequent dose-ranging toxicity studies and determine the suitability of the proposed human dose.\nSB 44 was administered orally to cynomolgus monkeys consecutively for 4 days at 500 mg/kg/day."}, "[7]": {"tested_on": "IRF3-luciferase reporter gene", "experiment": "IRF3-luciferase reporter induction in HLE A549 cells (primary assay for NOD2 activation)", "assay_type": "cell-based, human", "conditions": "12 h incubation", "method": "The evaluation of SMNH compounds for NOD2 activation was conducted by primary, secondary, and tertiary assays. In the primary assays, SMNH compounds were tested for the induction of IRF3 expression in HLE A549 cells, which are known to endogenously express NOD2. […] SB 44, a mixture of two isomers Rp and Sp, is a prodrug of SB 40. SB 1B—the Rp isomer of SB 44 and is shown as SB 44-1 in the FIGS. 1-2.\nIRF3-luciferase transfected cells were incubated with either DMSO only (UT) or SMNH compounds (μM). Following 12 h incubation, luciferase activity was measured using Dual-Luciferase Reporter Assay System (Promega) according to the manufacturer's protocol. Transfection efficiency was normalized by measuring the expression of renilla Luciferase. Luciferase units (i.e., fold induction) were measured by standard methodology (mean±standard deviation; 3 independent experiments). The results are depicted in FIG. 1."}, "PBMCs": {"tested_on": "PBMCs", "assay_type": "cell-based"}, "[8]": {"tested_on": "rat bone marrow erythrocytes", "experiment": "Bone-marrow micronucleus evaluation in rats", "assay_type": "in vivo, Sprague-Dawley rats", "conditions": "14-day oral dosing", "quoted_text": "as §1"}, "bacterial tester strains": {"tested_on": "bacterial tester strains", "experiment": "Bacterial mutation test (screening version, pre-incubation)", "conditions": "up to 5000 μg/plate", "method": "Study design: The test was performed on one occasion only. A subset of the standard tester strains (list strains) was used to evaluate the genotoxic potential of the test article.\nThe test article was formulated in dimethyl sulfoxide (DMSO) and tested at a maximum concentration of 5000 μg/plate (the standard limit dose for this assay) together with approximate half-log dilutions using the pre-incubation version of the bacterial mutation test. The absence of colonies on sterility check plates confirmed the absence of microbial contamination. The mean revertant colony counts for the vehicle controls were close to or within the laboratory historical control data. Appropriate positive control compounds (+/−S9 mix) induced increases in revertant colony numbers at least twice the concurrent vehicle control levels with the appropriate bacterial strain (1.5× for strain TA 100), confirming the sensitivity of the test system and activity of the S9 mix. […] No precipitation was observed."}, "Vero": {"tested_on": "Vero", "experiment": "MTT cytotoxicity assay, Vero cells", "assay_type": "cell-based", "conditions": "24-hour incubation", "excerpt": "SDS was used as a positive cytotoxic control."}, "M. tuberculosis [9]": {"tested_on": "M. tuberculosis", "parameters": "species or system C57Bl/6 mice", "conditions": "mouse, in vivo", "remark": "listed apart in the source"}, "[10]": {"experiment": "Dose range-finding oral toxicity study in rats (single dose and 7 days)", "assay_type": "in vivo, Sprague-Dawley rats", "excerpt": "The objective of this study was to determine potential toxic effects, to identify potential target organs of toxicity, and to determine a maximum tolerated dose (MTD) and a no observable adverse effect level (NOAEL) for the endpoints examined following daily oral gavage of SB 44 for 7 consecutive days to adult male and female Sprague-Dawley rats. Information from this study was used to design subsequent toxicity studies and determine the suitability of the proposed human dose. This study consisted of Phase A and Phase B. Phase A was a dose range-finding study. Two rats (1 male and 1 female) were included in the study. Animals were given a single dose of SB 44 at 1000 mg/kg by oral gavage (po) and observed for 3 days. […] No necropsy was performed.\nIn Phase B, rats (3/sex/group) were given a daily oral dose of SB 44 at 50, 250, and 1000 mg/kg/day for 7 consecutive days. A control group (3/sex) was also given a daily oral dose of the vehicle, 50% PEG 400 plus 50% HPMCT (0.1% hydroxypropyl methylcellulose and 0.2% Tween 80 in sterile water), at an equivalent volume for 7 days. Animals were sacrificed on Day 8. The following parameters were evaluated: mortality/morbidity, clinical observations, body weights, clinical pathology (hematology and serum chemistry), organ weights, and, at necropsy, macroscopic observations and microscopic histopathology for liver tissues."}, "phosphorylated IRF3": {"tested_on": "phosphorylated IRF3", "experiment": "Western blot for phosphorylated IRF3 in human lung epithelial A549 cells", "assay_type": "cell-based", "conditions": "500 nM, Western blotting", "method": "Human lung epithelial A549 cells were incubated with either DMSO or SB 44 (500 nM). At indicated post-treatment time-points, the cell lysate was subjected to Western blotting with antibody specific for phosphorylated IRF3 (phospho-IRF3) (Cell signaling)."}, "NF-kB": {"tested_on": "NF-kB", "experiment": "NF-kB-luciferase assay in HEK 293 cells transfected with RIGI and Nod2", "assay_type": "cell-based", "conditions": "10 μM; 12 h incubation", "method": "HEK 293 cells were transfected with RIGI, pcDNA, Nod2 and NF-kB-luciferase. The cells were then incubated with SB 44 (10 μM). Following 12 h incubation, Luciferase activity was measured as described previously. The Luciferase assay results are presented as mean±S.D. from three independent experiments."}},
  "note": "Entries after “also recorded” stand apart in the source; their conditions may differ.",
  "data": [
    {"smiles": "COC1C(OP(=O)(OCC2OC(n3cnc4c(N)ncnc43)CC2O)SCOC(=O)OC(C)C)C(CO)OC1n1ccc(=O)[nH]c1=O", "note": "(mixture of isomers) [SB 44]", "values": [
      {"measurement": "antigen specific CD8 / memory T cells in lungs of re-challenged mice", "setting": "M. tuberculosis [1]", "result": "boost the magnitude of antigen specific memory T cells; also recorded: induces a robust expansion of antigen specific CD8 T cells"},
      {"measurement": "protection against re-challenge of tuberculosis", "setting": "M. tuberculosis [1]", "result": "induce protection against re-challenge of tuberculosis in mice"},
      {"measurement": "recall response against re-challenge with tuberculosis", "setting": "M. tuberculosis [1]", "result": "retain the ability to mount a better recall response"},
      {"measurement": "no observed effect level (NOEL)", "setting": "[2]; 14-day oral study", "result": 50, "unit": "mg/kg/day"},
      {"measurement": "overt toxicity", "setting": "[2]; 50, 200, 500 mg/kg/day oral for 14 days", "result": "did not cause overt toxicity"},
      {"measurement": "thymus microscopic change", "setting": "[2]; males and females at 200 and 500 mg/kg/day", "result": "Minimal to mild increases in thymic phagocytic macrophages"},
      {"measurement": "antigen presentation (Antigen-85B) in macrophages", "setting": "[3]", "result": "enhance antigen presentation in vitro"},
      {"measurement": "cytokine induction in human PBMC cultures", "setting": "[4]", "result": "did not cause cytokine induction"},
      {"measurement": "minor metabolites", "setting": "[5]", "result": "< 10", "unit": "%"},
      {"measurement": "rate differences in conversion of Rp- and Sp-isomers", "setting": "[5]", "result": "no significant rate differences"},
      {"measurement": "desulfurized product", "setting": "[5]; MS analysis", "result": "< 5", "unit": "%"},
      {"measurement": "conversion of prodrug to SB 40", "setting": "[5]; up to eight hours", "result": "stereospecific conversion to the dinucleotide Rp, Sp-SB 40"},
      {"measurement": "induction of mature IL-1β", "setting": "IL-1β", "result": "induce IL-1β only in combination with either MDP or intact BCG bacilli"},
      {"measurement": "elevation of ALT", "setting": "[6]", "result": "about 2 fold"},
      {"measurement": "elevation of AST", "setting": "[6]", "result": "about 6 fold"},
      {"measurement": "tolerability", "setting": "[6]", "result": "clinically well tolerated"},
      {"measurement": "IRF3 activation (IRF3-luciferase)", "setting": "[7]", "result": "induced IRF3 activation"},
      {"measurement": "IFN production in the presence of BCG", "setting": "PBMCs", "result": "modest augmentation of IFN production"},
      {"measurement": "induction of micronuclei", "setting": "[8]", "result": "not found to induce micronuclei"},
      {"measurement": "toxicity to the bacteria (background lawn)", "setting": "bacterial tester strains", "result": "non-toxic to the bacteria at the levels tested"},
      {"measurement": "genotoxic activity (revertant colony counts)", "setting": "bacterial tester strains; absence or presence of S9 mix", "result": "did not show any evidence of genotoxic activity"},
      {"measurement": "CC50", "setting": "Vero", "result": "> 1000", "unit": "µM"},
      {"measurement": "Mtb counts of lungs", "setting": "M. tuberculosis [9]", "result": "reducing Mtb counts of lungs better than either BCG or MDP+BCG"},
      {"measurement": "Mtb counts of spleens", "setting": "M. tuberculosis [9]", "result": "better than BCG vaccine in reducing Mtb counts of spleens"},
      {"measurement": "adjuvant efficacy with BCG vaccine against tuberculosis", "setting": "M. tuberculosis [9]", "result": "better than muramyl dipeptide (MDP) as adjuvants"},
      {"measurement": "anti-TB T cell function of mice", "setting": "M. tuberculosis [9]", "result": "dramatic increase in anti-TB T cell function of mice"},
      {"measurement": "memory precursor T cells (MPECs)", "setting": "M. tuberculosis [9]", "result": "induces better memory precursor T cells (MPECs) than BCG vaccine"},
      {"measurement": "tetramer specific CD8 T cells", "setting": "M. tuberculosis [9]", "result": "comparable levels of tetramer specific CD8 T cells"},
      {"measurement": "NOAEL", "setting": "[10]; daily oral administration for 7 consecutive days", "result": "at least 1000 mg/kg/day"},
      {"measurement": "adverse effects", "setting": "[10]; daily oral gavage 50, 250, 1000 mg/kg/day for 7 days", "result": "no overt biologically or toxicologically significant adverse effects"},
      {"measurement": "clinical observation after single dose", "setting": "[10]; single dose 1000 mg/kg po, observed 3 days", "result": "appeared normal"},
      {"measurement": "activated IRF3 (phospho-IRF3) detection", "setting": "phosphorylated IRF3", "result": "detection of activated IRF3"},
      {"measurement": "induction of NF-kB activity via RIGI and Nod2 activation", "setting": "NF-kB", "result": "induction of NF-kB activity; also recorded: induction of the transcription factor, NF-KB"}
    ]}
  ]
}
